Consider six compounds from patent publication US10435406B2, “6,7-cyclicmorphinan derivatives and use thereof” (Purdue Pharma L.P., priority 2014, dated 2019).

Experiment [1] has as its target T1, κ opioid receptor (Homo sapiens (Human), UniProt P41145). In words: κ-opioid receptor [35S]GTPγS functional assay (HEK). To be noted: for Emax: HEK, GTPγS, relative to U69,593. It counts as biochemical. As to the method: (§1) Functional [^35S]GTPγS binding assays were conducted as follows. K opioid receptor membrane solution was prepared by sequentially adding final concentrations of 0.026 μg/μl membrane protein (in-house), 10 μg/mL saponin, 3 μM GDP and 0.20 nM [^35S]GTPγS to binding buffer (100 mM NaCl, 10 mM MgCl2, 20 mM HEPES, pH 7.4) on ice. The prepared membrane solution (190 μl/well) was transferred to 96-shallow well polypropylene plates containing 10 μl of 20× concentrated stock solutions of agonist prepared in DMSO. Plates were incubated for 30 min at a temperature of about 25° C. with shaking. Reactions were terminated by rapid filtration onto 96-well Unifilter GF/B filter plates (Perkin Elmer, Shelton, Conn.) using a 96-well tissue harvester (Packard) and followed by three filtration washes with 200 μl ice-cold binding buffer (10 mM NaH2PO4, 10 mM Na2HPO4, pH 7.4). Filter plates were subsequently dried at 50° C. for 2-3 hours. Fifty μl/well scintillation cocktail (Perkin Elmer, Shelton, Conn.) was added and plates were counted in a Packard Top-Count for 1 min/well.
(§2) GTP EC50 is the concentration of a compound providing 50% of the maximal response for the compound at a κ receptor.
(§3) κ GTP Emax (%) is the maximal effect elicited by a compound relative to the effect elicited by U69,593.
(§4) In TABLE 3, activity response of certain Compounds of the Invention to the μ- and κ-opioid receptors was determined as described above for functional assays using HEK cells.
Background: GTPγS is a poorly hydrolysed GTP analogue; its binding reports G protein activation.

The target in experiment [2] is T2, μ-opioid receptor (Homo sapiens (Human), UniProt P35372). In words: μ-opioid receptor [35S]GTPγS functional assay (HEK). Type of experiment: biochemical. To be noted: for Emax: HEK, GTPγS, relative to DAMGO. As to the method:
(§5) [^35S]GTPγS functional assays were conducted using freshly thawed μ-receptor membranes prepared in-house from a cell line expressing recombinant μ opioid receptor in a HEK-293, CHO or U-2 OS cell background, or purchased from a commercial source (Perkin Elmer, Shelton, Conn.; or DiscovRx, Fremont, Calif.). Assay reactions were prepared by sequentially adding the following reagents to binding buffer (100 mM NaCl, 10 mM MgCl2, 20 mM HEPES, pH 7.4) on ice (final concentrations indicated): membrane protein (0.026 mg/mL), saponin ([…]), GDP ([…]) and [^35S]GTPγS (0.20 nM; Perkin Elmer, Shelton, Conn.). The prepared membrane solution (190 μl/well) was transferred to 96-shallow well polypropylene plates containing 10 μl of 20× concentrated stock solutions of the agonist [D-Ala^2, N-methyl-Phe^4 Gly-ol^5]-enkephalin (DAMGO) prepared in dimethyl sulfoxide (DMSO). Plates were incubated for […] at about 25° C. with shaking. Reactions were terminated by rapid filtration onto 96-well Unifilter GF/B filter plates (Perkin Elmer, Shelton, Conn.) using a 96-well tissue harvester (Perkin Elmer, Shelton, Conn.) followed by three filtration washes with 200 μl of ice-cold wash buffer (10 mM NaH2PO4, 10 mM Na2HPO4, pH 7.4). Filter plates were subsequently dried at 50° C. for 2-3 hours. BetaScint scintillation cocktail (Perkin Elmer, Shelton, Conn.) was added (50 μl/well) and plates were counted using a Packard Top-Count for 1 min/well. Data were analyzed using the sigmoidal dose-response curve fitting functions in GraphPad PRISM v. 3.0, or an in-house function for non-linear, sigmoidal dose-response curve-fitting.
(§6) μ GTP EC50 is the concentration of a compound providing 50% of the maximal response for the compound at a μ-opioid receptor.
(§7) μ GTP Emax (%) is the maximal effect elicited by a compound relative to the effect elicited by DAMGO, a standard agonist. Generally, the μ GTP Emax (%) value measures the efficacy of a compound to treat or prevent pain or other Conditions.
as §4

Experiment [3] has as its target T2, μ-opioid receptor. The experiment is described as follows: μ-opioid receptor radioligand dose-displacement binding assay (HEK). To be noted: HEK cells; [3H]-diprenorphine. As to the method: Radioligand dose-displacement binding assays for μ-opioid receptors used 0.3 nM [^3H]-diprenorphine (Perkin Elmer, Shelton, Conn.), with […] membrane protein/well in a final volume of 500 μl binding buffer (10 mM MgCl2, 1 mM EDTA, 5% DMSO, 50 mM HEPES, pH 7.4). Reactions were carried out in the absence or presence of increasing concentrations of unlabeled naloxone. All reactions were conducted in 96-deep well polypropylene plates for 2 hours at room temperature. Binding reactions were terminated by rapid filtration onto 96-well Unifilter GF/C filter plates (Perkin Elmer, Shelton, Conn.), presoaked in 0.5% polyethylenimine using a 96-well tissue harvester (Perkin Elmer, Shelton, Conn.) followed by performing three filtration washes with 500 μl of ice-cold binding buffer. Filter plates were subsequently dried at 50° C. for 2-3 hours. BetaScint scintillation cocktail (Perkin Elmer, Shelton, Conn.) was added (50 μl/well), and plates were counted using a Packard Top-Count for 1 min/well. The data were analyzed using the one-site competition curve fitting functions in GraphPad PRISM™ v. 3.0 or higher (San Diego, Calif.), or an in-house function for one-site competition curve-fitting.
(§8) In TABLE 2, binding affinity of certain Compounds of the Invention to the μ- and κ-opioid receptors was determined as described above using HEK cells.

Experiment [4] has as its target T2, μ-opioid receptor. In words: μ-opioid receptor [35S]GTPγS functional assay (U-2 OS). It counts as biochemical. The note with it: for Emax: U2OS, GTPγS, relative to DAMGO. The procedure:
as §5, §6, §7
(§9) In TABLE 4, activity response of certain Compounds of the Invention to the μ- and κ-opioid receptors was determined as described above for functional assays using U-2 OS cells.

Experiment [5] concerns the target T1, κ opioid receptor. The experiment is described as follows: κ-opioid receptor radioligand dose-displacement binding assay (HEK). The note with it: HEK cells; [3H]-U69,593. As to the method:
Membranes from recombinantHEK-293 cells, CHO or U-2 OS cells expressing the recombinant human κ opioid receptor (κ) were prepared by lysing cells in ice cold hypotonic buffer (2.5 mM MgCl2, 50 mM HEPES, pH 7.4) (10 mL/10 cm dish) followed by homogenization with a tissue grinder/Teflon pestle. Membranes were collected by centrifugation at 30,000×g for 15 min at 4° C. and pellets were resuspended in hypotonic buffer to a final concentration of 1-3 mg/mL. Protein concentrations were determined using the BioRad protein assay reagent with bovine serum albumen as standard. Aliquots of κ receptor membranes were stored at −80° C.
Radioligand dose displacement assays used 0.4 nM [^3H]-U69,593 (GE Healthcare, Piscataway, N.J.; 40 Ci/mmole) with 15 μg membrane protein (recombinant κ opioid receptor expressed in HEK 293 cells; in-house prep) in a final volume of 200 μl binding buffer (5% DMSO, 50 mM Trizma base, pH 7.4). Non-specific binding was determined in the presence of 10 μM unlabeled naloxone or U69,593. All reactions were performed in 96-well polypropylene plates for 1 hour at a temperature of about 25° C. Binding reactions were terminated by rapid filtration onto 96-well Unifilter GF/C filter plates (Perkin Elmer, Shelton, Conn.) presoaked in 0.5% polyethylenimine (Sigma). Harvesting was performed using a 96-well tissue harvester (Perkin Elmer, Shelton, Conn.) followed by five filtration washes with 200 μl ice-cold binding buffer. Filter plates were subsequently dried at 50° C. for 1-2 hours. Fifty μl/well scintillation cocktail (Perkin Elmer, Shelton, Conn.) was added and plates were counted in a Packard Top-Count for 1 min/well.
as §8

Experiment [6] addresses T1, κ opioid receptor. The experiment is described as follows: κ-opioid receptor [35S]GTPγS functional assay (U-2 OS). The note with it: for Emax: U2OS, GTPγS, relative to U69,593. Type of experiment: biochemical. As to the method:
as §1, §2, §3, §9

A word on the EC50: it is the concentration giving half of the maximal effect. A high value points to lower potency in that assay. Usually Emax stands for the size of the effect at its maximum, as opposed to the concentration needed. As usually defined, the Ki is a measure of affinity in units of concentration, obtained from inhibition or displacement. High values mean a looser hold on the target, low ones a stronger hold on the target.

Regarding `COc1ccc2c(c1)[C@]13CCN(CC4CC4)[C@H](C2)[C@]1(O)C[C@H]1CC(=O)N[C@H]1C3` [Compound 1, (6R,6aS,7aS,10aS,11aR)-14-(cyclopropylmethyl)-6a-hydroxy-2-methoxy-5,6,6a,7,7a,8,10a,11-octahydro-6,11a-(epiminoethano)naphtho[2,1-f]indol-9(10H)-one], the EC50 in experiment [1] came out at 1770 ± 713 nM; in experiment [2] it was 821 ± 190 nM; in experiment [4] it was 223 ± 42 nM; in experiment [6] it was 66.9 ± 3.47 nM. The Emax in experiment [1] is 77 ± 8.19%; in experiment [2], 25.8 ± 0.48%; in experiment [4], 81.7 ± 3.33%; in experiment [6] it was 99 ± 1.53%. For the same compound, the Ki amounted to 533 ± 170 nM in experiment [3] and 12.4 ± 3.09 nM in experiment [5].

`O=C1C[C@@H]2C[C@@]3(O)[C@H]4Cc5ccc(O)cc5[C@@]3(CCN4CC3CC3)C[C@@H]2N1` [Compound 10, (6R,6aS,7aS,10aS,11aR)-14-(cyclopropylmethyl)-2,6a-dihydroxy-5,6,6a,7,7a,8,10a,11-octahydro-6,11a-(epiminoethano)naphtho[2,1-f]indol-9(10H)-one]: the EC50 in experiment [1] was 1 ± 0.18 nM; in experiment [2], > 20000 nM; in experiment [4] it was 1.59 ± 0.19 nM; in experiment [6], 0.42 ± 0.027 nM. Also, the Emax is 76.2 ± 5.39% in experiment [1], 0% in experiment [2], 46 ± 1% in experiment [4] and 112 ± 2.65% in experiment [6]. The values for the Ki in experiment [3] and in experiment [5] were 0.8 ± 0.1 nM and 0.16 ± 0.017 nM, respectively.

`CCN1C(=O)C[C@@H]2C[C@@]3(O)[C@H]4Cc5ccc(O)cc5[C@@]3(CCN4CC3CC3)C[C@@H]21` [Compound 16, (6R,6aS,7aS,10aS,11aR)-14-(cyclopropylmethyl)-10-ethyl-2,6a-dihydroxy-5,6,6a,7,7a,8,10a,11-octahydro-6,11a-(epiminoethano)-naphtho[2,1-f]indol-9(10H)-one]: in experiment [1], the EC50 is 0.66 ± 0.059 nM and the Emax worked out at 49.7 ± 2.19%. In addition, in experiment [2], the midpoint of the response, the EC50, lay at 4.18 ± 0.61 nM and the Emax is 20 ± 0.91%. In experiment [5], this compound gave a Ki of 0.31 ± 0.085 nM.

For the compound `O=C1C=C2C[C@@]3(O)[C@H]4Cc5ccc(O)cc5[C@@]3(CCN4CC3CC3)CC2N1` (stereo partly drawn) [Compound 9, (6R,6aS,11aR)-14-(cyclopropylmethyl)-2,6a-dihydroxy-5,6,6a,7,10a,11-hexahydro-6,11a-(epiminoethano)naphtho[2,1-f]indol-9(10H)-one], the EC50 is 7.24 ± 1.69 nM in experiment [1], > 20000 nM in experiment [2], 6.35 ± 1.74 nM in experiment [4] and 4.96 ± 0.59 nM in experiment [6]. Besides, the Emax in experiment [1] was found to be 27.2 ± 3.45%; in experiment [2], 1%; in experiment [4], 19.5 ± 0.29%; in experiment [6] it was 87.5 ± 6.44%. For the same compound, the Ki in experiment [3] was 2.34 ± 0.27 nM; in experiment [5] it was 2.16 ± 0.45 nM.

On to `O=C1C[C@@H]2C[C@@]3(O)[C@H]4Cc5ccc(O)cc5[C@@]3(CCN4CCc3ccccc3)C[C@@H]2N1` [Compound 5, (6R,6aS,7aS,10aS,11aR)-2,6a-dihydroxy-14-phenethyl-5,6,6a,7,7a,8,10a,11-octahydro-6,11a-(epiminoethano)naphtho[2,1-f]indol-9(10H)-one], for which, in experiment [1], the EC50 is > 20000 nM and the Emax is -0.25 ± 0.75%. Further, in experiment [2], the EC50 amounted to 1.94 ± 0.073 nM and the Emax came to 99.7 ± 2.03%. This compound also returned a Ki in experiment [5] of 4.03 ± 0.7 nM.

As for `COc1ccc2c(c1)[C@]13CCN(CC4CC4)[C@H](C2)[C@]1(O)CC1=CC(=O)NC1C3` (stereo partly drawn) [Compound 8, (6R,6aS,11aR)-14-(cyclopropylmethyl)-6a-hydroxy-2-methoxy-5,6,6a,7,10a,11-hexahydro-6,11a-(epiminoethano)naphtho[2,1-f]indol-9(10H)-one], the EC50 in experiment [1] was 1750 ± 197 nM; in experiment [2] it was > 20000 nM; in experiment [4] it was 846 ± 72.5 nM; in experiment [6], 585 ± 29.3 nM. For the same compound, the Emax in experiment [1] is 66.7 ± 1.33%; in experiment [2] it was -0.33 ± 0.67%; in experiment [4], 49 ± 1%; in experiment [6], 115 ± 3.53%.
